Experimental data reported in patent US12281114B2, “NK3 modulators and uses thereof” (Kallyope, Inc., priority 2023, dated 2025).

molecular target: T1, human NK3 (Homo sapiens, UniProt P29371); assay: FLIPR calcium assay in antagonist mode (NKB EC70 challenge); format: cell-based; conditions: stable cell line expressing human recombinant NK3; antagonist mode vs EC70 of NKB agonist
T1 sequence (P29371 1-465): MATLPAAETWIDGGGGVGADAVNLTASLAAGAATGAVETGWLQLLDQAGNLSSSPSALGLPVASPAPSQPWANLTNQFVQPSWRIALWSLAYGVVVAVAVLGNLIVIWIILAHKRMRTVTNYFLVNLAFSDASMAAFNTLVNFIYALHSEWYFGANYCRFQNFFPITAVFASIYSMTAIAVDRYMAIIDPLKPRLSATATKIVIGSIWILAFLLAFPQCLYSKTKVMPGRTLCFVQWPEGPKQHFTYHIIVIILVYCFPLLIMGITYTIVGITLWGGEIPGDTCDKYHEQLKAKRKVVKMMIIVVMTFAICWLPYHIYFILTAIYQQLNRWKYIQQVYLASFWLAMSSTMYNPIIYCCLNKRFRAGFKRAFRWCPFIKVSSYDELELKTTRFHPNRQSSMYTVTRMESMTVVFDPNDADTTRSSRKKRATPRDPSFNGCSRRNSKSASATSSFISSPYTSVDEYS
Procedure: Stable Cell Lines: A human recombinant NK3 Tachykinin Receptor stable cell line was purchased from GenScript (Genscript, Cat. #M00201; GenBank Accession Number NM 001059). The cell line was cultured according to manufacturer instructions, using 100 μg/mL Hygromycin B (Invitrogen, Cat. #D2650) for selective pressure. Cells were then collected using 0.05% Trypsin-EDTA (GIBCO, Cat. #25300) and frozen in a freezing media containing 90% FBS (Gibco, Cat. #10099-141) and 10% DMSO (Sigma, Cat. #D2650) at a density of 30×10^6 cells/mL. This bank of assay-ready frozen cells was later used in FLIPR assays to evaluate the potency and efficacy of NK3 antagonist test compounds.
FLIPR Calcium Assay: The FLIPR assay, used to measure changes in intracellular calcium levels, was performed in a 384-well plate format using the FLIPR Calcium 6 assay kit (Molecular Devices, Cat. #R8190). Assay-ready frozen cells expressing human NK3 (Genscript, Cat. #M00201) were thawed, washed, trypsinized, counted using a ViCell, and plated in cell growth media without Hygromycin at a density of […] (40 μL/well).
Calculation of NKB EC70: An EC70 concentration of NKB needed to be determined for competition against test antagonists prior to the compound screen. NKB agonist (Phoenix Pharmaceuticals, Cat. #046-26) was diluted in DMSO at 1800 nM (6-fold the final concentration) and serially diluted to generate a 13-point dose response curve (3-fold serial dilution) using an ECHO. 20 μL of 1× stimulation buffer was added using the BRAVO. 10 μL of DMSO was added while on the FLIPR (described as the first addition), then the RFU signal was measured for 10 minutes. The NKB titration was added to the plate, then the RFU signal was measured for 10 minutes (described as the second addition) on the FLIPR. The EC70 concentration was determined by using a four-parameter fit on GraphPad Prism prior to performing the compound screen.
FLIPR Screen in Antagonist Mode: Test compounds were prepared at 60 μM (6-fold the final concentration) and spotted in 370 nL using the Janus and ECHO. 20 μL of assay buffer was added using the BRAVO. Calcium-sensitive dye was reconstituted in loading buffer (Molecular Devices, Cat. #R8190). Media was removed from the cell plate using a Bluecat Cell Washer, and 40 μL of dye was added to the cell plate using the Apricot. The plate was incubated for 2 hours at 37° C., 5% CO2, then transferred to the FLIPR instrument. 10 μL of compound was added on the FLIPR (described as the first addition), then the RFU signal was measured for 10 minutes. EC70 of NKB agonist was added to the entire plate (described as the second addition), and the RFU signal was measured for 10 minutes on the FLIPR. RFU (relative fluorescence units) signals for first baseline, first peak, second baseline, and second peak were measured using the FLIPR. RFU signal (second peak minus second baseline) for positive (Max, at 10 μM antagonist) and negative (Min, at 0 μM antagonist) controls were used to normalize data and generate values for % Activity. IC50 and efficacy values were determined using a standard curve fitting equation on Dotmatics.

IC50 [nM]	SMILES
3.18	Cc1nn(C)cc1-c1ccccc1-c1nc2cc(C(=O)N[C@H]3CO[C@H]4[C@@H]3OC[C@@H]4N)ccn2c1Cl [Compound 617]
2.3	Cc1nn(C)cc1-c1ccccc1-c1nc2cc(C(=O)NC34CC(O)(C3)C4)ccn2c1Cl [Compound 430]
2.55	Cc1nn(C)cc1-c1ccccc1-c1nc2cc(C(=O)N[C@H]3C[C@@](C)(O)C3)ccn2c1Cl [Compound 460]
8.45	Cc1nn(C)cc1-c1ccccc1-c1nc2cc(C(=O)N[C@@H]3CO[C@H]4[C@@H]3OC[C@H]4N)ccn2c1Cl [Compound 794]
1.03	CC12CC(NC(=O)c3ccn4c(Cl)c(-c5c(F)cc(F)cc5-c5c[nH]nc5Cl)nc4c3)(CO1)C2 [Compound 788, 3-chloro-2-(2-(3-chloro-1H-pyrazol-4-yl)-4,6-difluorophenyl)-N-(1-methyl-2-oxabicyclo[2.1.1]hexan-4-yl)imidazo[1,2-a]pyridine-7-carboxamide]
3.66	Cc1c(-c2c(F)cc(F)cc2-c2cn(C)nc2F)nc2cc(C(=O)N[C@H]3C[C@@](C)(O)C3)ccn12 [Compound 831]
0.3	Cn1cc(-c2cccc(F)c2-c2nc3cc(C(=O)N[C@H]4C[C@](C)(O)C4)ccn3c2Cl)c(F)n1 [Compound 828]
2.65	Cc1nn(C)cc1-c1ccccc1-c1nc2cc(C(=O)NCCS(N)(=O)=O)ccn2c1Cl [Compound 614]
1.08	Cc1nn(C)cc1-c1ccccc1-c1nc2cc(C(=O)N[C@H]3C[C@@H](CO)C3)ccn2c1Cl [Compound 643]
0.97	Cn1cc(-c2cccc(F)c2-c2nc3cc(C(=O)NC4CC5(CC(O)C5)C4)ccn3c2Cl)c(F)n1 (stereo not shown) [Compound 853]
3.57	C[C@H]1C[C@H](NC(=O)c2ccn3c(Cl)c(-c4c(F)cc(F)cc4-c4c[nH]nc4F)nc3c2)C1 [Compound 847]
3.31	CCn1cc(-c2ccccc2-c2nc3cc(C(=O)N[C@@H]4CO[C@H]5[C@@H]4OC[C@H]5O)ccn3c2Cl)c(C)n1 [Compound 476]
3.25	Cc1nn(C)cc1-c1cncc(F)c1-c1nc2cc(C(=O)N[C@H]3C[C@@](C)(O)C3)ccn2c1Cl [Compound 823]
5.21	Cc1nn(C)cc1-c1ccccc1-c1nc2cc(C(=O)N[C@H]3CO[C@H]4[C@@H]3OC[C@@H]4O)ccn2c1C#N [Compound 774]
9.28	Cc1nn(C)cc1-c1ccccc1-c1nc2cc(C(=O)NCCC3(O)COC3)ccn2c1Cl [Compound 651]
6.76	Cc1nn(C)cc1-c1ccccc1-c1nc2cc(C(=O)NC3CCNCC3)ccn2c1Cl [Compound 704]
3	Cn1cc(-c2cccc(F)c2-c2nc3cc(C(=O)N[C@H]4CC[C@](C)(O)CC4)ccn3c2C#N)c(F)n1 [Compound 930, 3-cyano-2-(2-fluoro-6-(3-fluoro-1-methyl-1H-pyrazol-4-yl)phenyl)-N-((1r,4r)-4-hydroxy-4-methylcyclohexyl)imidazo[1,2-a]pyridine-7-carboxamide]
1.1	CC(C)(O)C12CC(NC(=O)c3ccn4c(F)c(-c5c(F)cccc5-c5c[nH]nc5F)nc4c3)(C1)C2 [Compound 836]
3.81	Cc1nn(C)cc1-c1ccccc1-c1nc2cc(C(=O)N3CC(=O)N[C@H](CO)C3)ccn2c1Cl [Compound 639]
10.7	Cc1nn(C)cc1-c1ccccc1-c1nc2cc(C(=O)NC3CCNCC3)ccn2c1C [Compound 264]
1.19	Cc1nn(C)cc1-c1ccccc1-c1nc2cc(C(=O)N[C@H]3C[C@H](C(C)(C)O)C3)ccn2c1Cl [Compound 793]
5.83	Cc1nn(C)cc1-c1ccccc1-c1nc2cc(C(=O)NCC3(O)COC3)ccn2c1Cl [Compound 650]

IC50 [nM]	SMILES
0.67	Cn1cc(-c2cccc(F)c2-c2nc3cc(C(=O)N[C@H]4CC[C@](C)(O)CC4)ccn3c2Cl)c(F)n1 [Compound 917]
3.31	CC12CC(NC(=O)c3ccn4c(Cl)c(-c5c(F)cc(F)cc5-c5c[nH]nc5F)nc4c3)(CO1)C2 [Compound 790, 3-chloro-2-(2,4-difluoro-6-(3-fluoro-1H-pyrazol-4-yl)phenyl)-N-(1-methyl-2-oxabicyclo[2.1.1]hexan-4-yl)imidazo[1,2-a]pyridine-7-carboxamide]
5.66	Cn1cc(-c2ccc(F)c(F)c2-c2nc3cc(C(=O)N4CCOCC4)ccn3c2Cl)c(F)n1 [Compound 933, (3-chloro-2-(2,3-difluoro-6-(3-fluoro-1-methyl-1H-pyrazol-4-yl)phenyl)imidazo[1,2-a]pyridin-7-yl)(morpholino)methanone]
1.65	Cc1nn(C)cc1-c1ccccc1-c1nc2cc(C(=O)NC[C@]34C[C@](CO)(C3)C4)ccn2c1Cl [Compound 635]
0.97	O=C(N[C@@H]1C[C@@H](O)[C@@H](O)C1)c1ccn2c(Cl)c(-c3c(F)cccc3-c3cn(C4CC4)nc3F)nc2c1 [Compound 852]
1.24	Cc1nn(C)cc1-c1ccccc1-c1nc2cc(C(=O)N[C@@H]3C[C@H]3CO)ccn2c1Cl [Compound 619]
1.04	Cc1nn(C)cc1-c1ccccc1-c1nc2cc(C(=O)N[C@H]3C[C@H](CO)C3)ccn2c1Cl [Compound 641]
6.91	Cn1ncc(-c2cc(F)cc(F)c2-c2nc3cc(C(=O)N[C@H]4C[C@@](C)(O)C4)ccn3c2Cl)c1F [Compound 832]
0.59	Cc1nn(C)cc1-c1ccccc1-c1nc2cc(C(=O)NCC34CC(CO)(CCO3)C4)ccn2c1Cl [Compound 624]
1.45	Cc1nn(C)cc1-c1ccccc1-c1nc2cc(C(=O)NCC34CC(CO)(CO3)C4)ccn2c1Cl [Compound 616]
1.25	Cn1cc(-c2cccc(F)c2-c2nc3cc(C(=O)N[C@H]4C[C@@](O)(CO)C4)ccn3c2Cl)c(F)n1 [Compound 841]
0.84	Cn1cc(-c2ccc(F)c(F)c2-c2nc3cc(C(=O)N[C@H]4C[C@@](C)(O)C4)ccn3c2Cl)c(F)n1 [Compound 916]
5.89	Cc1nn(C)cc1-c1c(F)cncc1-c1nc2cc(C(=O)N[C@H]3C[C@](C)(O)C3)ccn2c1Cl [Compound 824]
20.7	Cc1nn(C)cc1-c1ccccc1-c1nc2cc(C(=O)N3CC[C@@H](N4CCNCC4)C3)ccn2c1C (single isomer, unassigned) [Compound 480]
0.31	Cn1cc(-c2cccc(F)c2-c2nc3cc(C(=O)NCC45CC(CO)(CCO4)C5)ccn3c2Cl)c(F)n1 [Compound 850]
0.72	Cn1cc(-c2cccc(F)c2-c2nc3cc(C(=O)N[C@H]4C[C@@](C)(O)C4)ccn3c2Cl)c(F)n1 [Compound 791, 3-chloro-2-(2-fluoro-6-(3-fluoro-1-methyl-1H-pyrazol-4-yl)phenyl)-N-((1s,3s)-3-hydroxy-3-methylcyclobutyl)imidazo[1,2-a]pyridine-7-carboxamide]
1.41	Cc1nn(C)cc1-c1cccc(F)c1-c1nc2cc(C(=O)N[C@@H]3CO[C@H]4[C@@H]3OC[C@H]4O)ccn2c1Cl [Compound 470]
67.5	Cc1nn(C)cc1-c1ccccc1-c1nc2cc(C(=O)O)ccn2c1Cl [Compound 436]
5.82	Cc1nn(C)cc1-c1ccccc1-c1nc2cc(C(=O)N[C@H]3CO[C@H]4[C@@H]3OC[C@H]4O)ccn2c1C [Compound 779]
4.27	Cc1nn(C)cc1-c1cccc(F)c1-c1nc2cc(C(=O)N3C[C@@H]4C[C@H]3C(=O)N4)ccn2c1C#N [Compound 468]
41.7	Cc1c(-c2ccccc2-c2nc3cc(C(=O)N[C@H]4C[C@](C)(C(=O)O)C4)ccn3c2C)cnn1C [Compound 312]
